The target in the assay is T1, Hxk2 (Saccharomyces cerevisiae, UniProt P04807).
T1 construct: expressed from low-copy plasmid in hxk1Δ hxk2Δ glk1Δ yeast; whole cell extract; probably C-terminal 3xV5 tag
T1 sequence (P04807 2-486): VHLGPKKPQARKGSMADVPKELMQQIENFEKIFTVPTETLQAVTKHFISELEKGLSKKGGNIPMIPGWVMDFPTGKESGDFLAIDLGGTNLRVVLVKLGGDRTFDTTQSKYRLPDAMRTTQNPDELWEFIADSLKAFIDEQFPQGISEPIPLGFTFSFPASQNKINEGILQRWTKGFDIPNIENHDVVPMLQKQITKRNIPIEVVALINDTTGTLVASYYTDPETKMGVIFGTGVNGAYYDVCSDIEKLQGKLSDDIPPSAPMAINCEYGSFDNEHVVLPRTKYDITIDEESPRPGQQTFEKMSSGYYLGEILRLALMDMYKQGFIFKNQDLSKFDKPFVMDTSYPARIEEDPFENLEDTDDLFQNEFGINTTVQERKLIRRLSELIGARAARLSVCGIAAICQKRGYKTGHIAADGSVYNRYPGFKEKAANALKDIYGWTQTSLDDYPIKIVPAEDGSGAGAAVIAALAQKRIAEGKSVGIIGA
Kind of assay: G6PDH-coupled NADPH absorbance at […] nm, double reciprocal plot. The format is biochemical. To be noted: read-out: Km Glucose; 1 mM ATP, 10 mM MgCl2, pH 7.4; whole cell extract.

`OC[C@H]1OC(O)[C@H](O)[C@@H](O)[C@@H]1O` (stereo partly shown) [glucose]: the Michaelis-Menten constant (Km) – broadly, the concentration of substrate that gives half-maximal velocity – worked out at 190 µM.

For the origin of these results see paper PMC7386655, “Spontaneous mutations that confer resistance to 2-deoxyglucose act through Hxk2 and Snf1 pathways to regulate gene expression and HXT endocytosis” (PLoS Genetics, 2020).
